What was measured:
Type in all cases: cell-based
[1] = test system: HCV replicon; assay: Anti-HCV assay/Replicon assay 2 (luciferase); conditions: Hepatitis C virus, 72 h, 3 days
Method: • HCV Replicon Media • DMEM w/High Glucose (or MEM) • 1× Glutamine • 1× Sodium Pyruvate • 10% Heat Inactivated FBS • 1× Antibiotics Cell Culture Preparation • 1. Unthaw frozen stock in 10-12 mls of Media • 2. Allow cells to attach before adding G418 (4-6 hrs) • 3. Add G418 for a final concentration of 200 ug/mL (higher amounts are possible but cells grow slowly) • 4. Split cells 1:4 to 1:6 for optimal growth • 5. In-house replicon seems to maintain Luciferase signal for ˜20 passages HCV Replicon Assay • 1. Dilute compounds in 100 uL of HCV Replicon Media (without G418). If compounds are diluted in DMSO add DMSO to media (Final DMSO concentration should be <1%) • 2. Once cells have reached 80-90% confluency, trypsinize with 1× Trypsin • 3. […] These cells tend to clump if over trypsinized • 4. For 96 well format add 6,000-8,000 cells per well (G418 is withheld during compound testing) • 5. Incubate for 3 days at 37° C. Cells should be very close to confluent. • 6. Remove media and wash cells with 1×PBS • 7. Remove PBS and add 100 μL of 1×Promega Lysis Buffer • 8. Incubate cells at Room Temperature for 5-20 minutes • 9. Add 100 μL of room temperature Luciferase Substrate Solution (Promega) to Microfluor Black Plate (VWR) • 10. Thoroughly Mix Cell lysate (pipet up and down) before adding to Luciferase substrate • 11. Add 75 μL of lysate to the Luciferase substrate solution • 12. Read Plate On Top Count (FusionLucB program˜5 second read) • 13. Left over lysate can be frozen and used for later analysis Determination of Cytostatic Effect on MDBK Cells

[2] = HCV CC50 assay protocol (MTT); conditions: HCV replicon cells
Method: (§1) • HCV Replicon Media • DMEM w/High Glucose (or MEM) • 1×Glutamine • 1× Sodium Pyruvate • 10% Heat Inactivated FBS • 1× Antibiotics Cell Culture Preparation • 1. Unthaw frozen stock in 10-12 mls of Media • 2. Allow cells to attach before adding G418 (4-6 hrs) • 3. Add G418 for a final concentration of 200 ug/ml (higher amounts are possible but cells grow slowly) • 4. Split cells 1:4 to 1:6 for optimal growth • 5. In-house replicon seems to maintain Luciferase signal for ˜20 passages HCV Replicon Assay • 1 Dilute compounds in 100 uL of HCV Replicon Media (without G418). If compounds are diluted in DMSO add DMSO to media (Final DMSO concentration should be <1%) • 2. Once cells have reached 80-90% confluency, trypsinize with 1×Trypsin • 3. […] These cells tend to clump if over trypsinized • 4. For 96 well format add 6,000-8,000 cells per well (G418 is withheld during compound testing) • 5. Incubate for 3 days at 37° C. Cells should be very close to confluent. • 6. Remove media and add 200 μL of a 0.2 mg/mL MTT solution prepared in media. • 7. Incubate for 1.5 hours to 2 hours. • 8. Remove media and add 150 μL of DMSO • 9. Mix and incubate for 5 mins at room temperature • 10. Read plate at 530 nm in the plate reader. Results

[3] = test system: HCV replicon cells; assay: HCV CC50 assay protocol (MTT); conditions: 3 days
Method: as §1

| SMILES | EC50 [1] [µM] | CC50 at 3 days [2] [µM] | CC50 [3] [µM] |
| --- | --- | --- | --- |
| Fc1cccc(-c2nc3ccn(Cc4cc(-c5ccc(Cl)cc5)no4)cc-3n2)c1F [Example 5, 5-((3-(4-chlorophenyl)isoxazol-5-yl)methyl)-2-(2,3-difluorophenyl)-5H-imidazo[4,5-c]pyridine] | 0.0039 | 10.8 | 13.4 |
| Fc1ccc(-c2ccc(Cn3ccc4nc(-c5cccc(F)c5F)nc-4c3)cc2)c(F)c1 [Example 4, 5-(2,4-difluoro-biphenyl)methyl-2-(2,3-difluorophenyl)-5H-imidazo[4,5-c]pyridine] | 0.01 | 19 | – |
| Fc1ccccc1-c1nc2ccn(Cc3cc(-c4ccc(Cl)cc4)no3)cc-2n1 [Example 2, 5((3-(4-chlorophenyl)isoxazol-5-yl)methyl)-2-(2-fluorophenyl)-5H-imidazo[4,5-c]pyridine] | 0.01 | 26 | – |
| Fc1cccc(-c2nc3ccn(Cc4ccc(OC(F)(F)F)cc4)cc-3n2)c1F [Example 3A, 5-(4-(trifluoromethoxy)benzyl)-2-(2,3-difluorophenyl)-5H-imidazo[4,5-c]pyridine] | 0.02 | 34 | – |

Reference: US20050222198A1, “Imidazo[4,5-c]pyridine compounds and methods of antiviral treatment” (priority 2003, published 2005)
